According to PubChem BioAssay (NCI):
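Interpolation was linear, between the two tested concentrations surrounding the appropriate level; five concentrations were tested over 48 hours in 96-well plates. GI50 is the concentration that inhibits growth by half. TGI denotes the concentration required for complete inhibition of growth.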

Experiments:
Assay in all cases: inhibition of tumour cell growth, NCI panel, 48 h
SF-539 CNS = system: SF-539 CNS
HL-60(TB) leukemia = system: HL-60(TB) leukemia
U251 CNS = system: U251 CNS
A498 renal = system: A498 renal
DU-145 prostate = system: DU-145 prostate
NCI-H522 lung = system: NCI-H522 lung
OVCAR-5 ovarian = system: OVCAR-5 ovarian
SR leukemia = system: SR leukemia
COLO 205 colon = system: COLO 205 colon
OVCAR-4 ovarian = system: OVCAR-4 ovarian

SMILES: CS(C)(=O)=Nn1c(=O)n2n(c1=O)C1c3ccccc3C2c2ccccc21
- TGI (SF-539 CNS): > 100 µM
- TGI (HL-60(TB) leukemia): > 100 µM
- TGI (U251 CNS): > 100 µM
- TGI (A498 renal): > 100 µM
- TGI (DU-145 prostate): > 100 µM
- TGI (NCI-H522 lung): > 100 µM
- TGI (OVCAR-5 ovarian): > 100 µM
- TGI (SR leukemia): > 100 µM
- TGI (COLO 205 colon): > 100 µM

SMILES: Nc1cc(S(=O)(=O)O)cc2ccc(S(=O)(=O)O)cc12
- TGI (SF-539 CNS): > 100 µM
- TGI (HL-60(TB) leukemia): > 100 µM
- TGI (U251 CNS): > 100 µM
- TGI (A498 renal): > 100 µM
- TGI (DU-145 prostate): > 100 µM
- TGI (NCI-H522 lung): > 100 µM
- TGI (OVCAR-5 ovarian): > 100 µM
- TGI (SR leukemia): > 100 µM
- TGI (OVCAR-4 ovarian): > 100 µM
- TGI (COLO 205 colon): > 100 µM

SMILES: Cc1ccc2nc(-c3ccc(NC(=O)c4ccc(N)cc4)c(S(=O)(=O)O)c3)sc2c1
- TGI (HL-60(TB) leukemia): > 100 µM
- TGI (U251 CNS): > 100 µM
- TGI (A498 renal): > 100 µM
- TGI (DU-145 prostate): > 100 µM
- TGI (NCI-H522 lung): > 100 µM
- TGI (OVCAR-5 ovarian): > 100 µM
- TGI (OVCAR-4 ovarian): > 100 µM
- TGI (COLO 205 colon): > 100 µM

SMILES: N#Cc1ccccc1C#C/C=C\C#Cc1ccccc1N
- GI50 (SF-539 CNS): 4.49 µM
- TGI (SF-539 CNS): > 20.2 µM
- GI50 (HL-60(TB) leukemia): 4.22 µM
- TGI (HL-60(TB) leukemia): > 100 µM
- GI50 (U251 CNS): 4.16 µM
- TGI (U251 CNS): > 42.5 µM
- GI50 (A498 renal): 34.9 µM
- TGI (A498 renal): 94.1 µM
- GI50 (DU-145 prostate): 13.9 µM
- TGI (DU-145 prostate): > 100 µM
- GI50 (NCI-H522 lung): 2.94 µM
- GI50 (OVCAR-5 ovarian): 5 µM
- TGI (OVCAR-5 ovarian): > 62.6 µM
- GI50 (SR leukemia): 0.745 µM
- TGI (SR leukemia): 2.52 µM
- GI50 (OVCAR-4 ovarian): 16.1 µM
- TGI (OVCAR-4 ovarian): > 100 µM
- GI50 (COLO 205 colon): 4.8 µM
- TGI (COLO 205 colon): > 100 µM

SMILES: Cn1c2[n+](c3nc(N)[nH]c(=O)c31)C1OC(C2)C(O)C1O (centres undefined)
- TGI (SF-539 CNS): > 100 µM
- TGI (HL-60(TB) leukemia): > 100 µM
- TGI (U251 CNS): > 100 µM
- TGI (A498 renal): > 100 µM
- TGI (NCI-H522 lung): > 100 µM
- TGI (OVCAR-5 ovarian): > 100 µM
- TGI (SR leukemia): > 100 µM
- TGI (OVCAR-4 ovarian): > 100 µM
- TGI (COLO 205 colon): > 100 µM

SMILES: COc1ccc(-c2nn(-c3ccc(NC(=O)c4cc(Cl)cc(Cl)c4)cc3)cc2-c2ccncc2)cc1Cl
- GI50 (SF-539 CNS): 2 µM
- TGI (SF-539 CNS): > 100 µM
- GI50 (HL-60(TB) leukemia): 3.41 µM
- TGI (HL-60(TB) leukemia): > 100 µM
- GI50 (U251 CNS): 1.84 µM
- TGI (U251 CNS): > 100 µM
- GI50 (A498 renal): 3.04 µM
- TGI (A498 renal): > 100 µM
- GI50 (DU-145 prostate): > 100 µM
- TGI (DU-145 prostate): > 100 µM
- GI50 (NCI-H522 lung): 5.11 µM
- TGI (NCI-H522 lung): > 100 µM
- GI50 (SR leukemia): 2.72 µM
- TGI (SR leukemia): > 100 µM
- GI50 (OVCAR-4 ovarian): > 100 µM
- TGI (OVCAR-4 ovarian): > 100 µM
- GI50 (COLO 205 colon): > 100 µM
- TGI (COLO 205 colon): > 100 µM

SMILES: O=C(O)C1CCCCN1C(=O)Cc1c[nH]c2ccccc12 (centres undefined)
- TGI (SF-539 CNS): > 100 µM
- TGI (HL-60(TB) leukemia): > 100 µM
- TGI (U251 CNS): > 100 µM
- TGI (DU-145 prostate): > 100 µM
- TGI (NCI-H522 lung): > 100 µM
- TGI (OVCAR-5 ovarian): > 100 µM
- TGI (OVCAR-4 ovarian): > 100 µM
- TGI (COLO 205 colon): > 100 µM

SMILES: Cc1cc2ccc(OC(=O)c3ccc(N=C(N)N)cc3)cc2oc1=O
- TGI (SF-539 CNS): 61.6 µM
- TGI (HL-60(TB) leukemia): 45.8 µM
- TGI (U251 CNS): 45.6 µM
- TGI (A498 renal): 43.9 µM
- TGI (DU-145 prostate): > 100 µM
- TGI (NCI-H522 lung): 45.2 µM
- TGI (OVCAR-5 ovarian): > 100 µM
- TGI (SR leukemia): 58.4 µM
- TGI (OVCAR-4 ovarian): 46.6 µM
- TGI (COLO 205 colon): 55.9 µM

SMILES: CC(=O)Nc1ccc(C(=O)NN2C(=O)C(Cl)C2c2cccc([N+](=O)[O-])c2)cc1 (centres undefined)
- TGI (SF-539 CNS): > 100 µM
- TGI (HL-60(TB) leukemia): > 100 µM
- TGI (U251 CNS): > 100 µM
- TGI (NCI-H522 lung): > 100 µM
- TGI (OVCAR-5 ovarian): > 100 µM
- TGI (SR leukemia): > 100 µM
- TGI (COLO 205 colon): > 100 µM

SMILES: Cc1n[n+]([O-])c(C)cc1[N+](=O)[O-]
- TGI (SF-539 CNS): 59.3 µM
- TGI (U251 CNS): 51.9 µM
- TGI (A498 renal): 40.6 µM
- TGI (DU-145 prostate): 51.2 µM
- TGI (NCI-H522 lung): 25.6 µM
- TGI (OVCAR-5 ovarian): 36.8 µM
- TGI (OVCAR-4 ovarian): 33.5 µM
- TGI (COLO 205 colon): 26.3 µM

SMILES: COC(=O)C1CC23C4=C(CCC41)CCC1CN4CC(C)C(CC(OC(C)=O)C12COC(C)=O)C43O (centres undefined)
- TGI (SF-539 CNS): > 100 µM
- TGI (HL-60(TB) leukemia): > 100 µM
- TGI (U251 CNS): > 100 µM
- TGI (A498 renal): > 100 µM
- TGI (DU-145 prostate): > 100 µM
- TGI (NCI-H522 lung): > 100 µM
- TGI (OVCAR-5 ovarian): > 100 µM
- TGI (OVCAR-4 ovarian): > 100 µM
- TGI (COLO 205 colon): > 100 µM

SMILES: CCOC(=O)c1c(-c2cccc(Cl)c2)c(C(=O)OC)c(C)c2sc(C=O)nc12
- TGI (SF-539 CNS): 35.4 µM
- TGI (HL-60(TB) leukemia): 44.9 µM
- TGI (U251 CNS): 32.2 µM
- TGI (DU-145 prostate): 37.8 µM
- TGI (NCI-H522 lung): 32.5 µM
- TGI (OVCAR-5 ovarian): 35.7 µM
- TGI (OVCAR-4 ovarian): 40.3 µM
- TGI (COLO 205 colon): 34.4 µM

SMILES: CCOCC(=O)N(C)c1cccc2c3c(n(C)c12)CCCCC3
- TGI (SF-539 CNS): > 100 µM
- TGI (HL-60(TB) leukemia): > 100 µM
- TGI (U251 CNS): > 100 µM
- TGI (A498 renal): > 100 µM
- TGI (NCI-H522 lung): > 100 µM
- TGI (OVCAR-5 ovarian): > 100 µM
- TGI (OVCAR-4 ovarian): > 100 µM
- TGI (COLO 205 colon): > 100 µM

SMILES: OCCCSCCO
- TGI (SF-539 CNS): > 100 µM
- TGI (HL-60(TB) leukemia): > 100 µM
- TGI (U251 CNS): > 100 µM
- TGI (A498 renal): > 100 µM
- TGI (DU-145 prostate): > 100 µM
- TGI (NCI-H522 lung): > 100 µM
- TGI (OVCAR-5 ovarian): > 100 µM
- TGI (SR leukemia): > 100 µM
- TGI (OVCAR-4 ovarian): > 100 µM
- TGI (COLO 205 colon): > 100 µM

SMILES: CC1=CC(O)C(C(O)(C(F)(F)F)C(F)(F)F)C(C)(C)C1 (centres undefined)
- TGI (SF-539 CNS): > 10 µM
- TGI (HL-60(TB) leukemia): > 10 µM
- TGI (U251 CNS): > 10 µM
- TGI (A498 renal): 0.0823 µM
- TGI (DU-145 prostate): > 10 µM
- TGI (NCI-H522 lung): > 10 µM
- TGI (OVCAR-5 ovarian): > 10 µM
- TGI (OVCAR-4 ovarian): > 10 µM
- TGI (COLO 205 colon): > 10 µM

SMILES: O=C(O)C(O)C(O)C(O)C(O)C(=O)O (centres undefined)
- TGI (SF-539 CNS): > 100 µM
- TGI (HL-60(TB) leukemia): > 100 µM
- TGI (U251 CNS): > 100 µM
- TGI (A498 renal): > 100 µM
- TGI (DU-145 prostate): > 100 µM
- TGI (NCI-H522 lung): > 100 µM
- TGI (OVCAR-5 ovarian): > 100 µM
- TGI (SR leukemia): > 100 µM
- TGI (OVCAR-4 ovarian): > 100 µM
- TGI (COLO 205 colon): > 100 µM

SMILES: COC(=O)C1=C(OC(=O)/C=C/c2ccc(Cl)cc2)C(C(=O)OC)[C@]2(O)[C@@H](C(=O)OC)[C@H]1C[C@@H](c1ccccc1)[C@@H]2C(=O)OC (some centres undefined)
- TGI (SF-539 CNS): 35.6 µM
- TGI (HL-60(TB) leukemia): 23.7 µM
- TGI (U251 CNS): > 100 µM
- TGI (A498 renal): 44.2 µM
- TGI (DU-145 prostate): > 100 µM
- TGI (NCI-H522 lung): 5.83 µM
- TGI (OVCAR-5 ovarian): > 100 µM
- TGI (SR leukemia): > 100 µM
- TGI (OVCAR-4 ovarian): > 100 µM
- TGI (COLO 205 colon): > 22.2 µM

SMILES: O=C1C2Cc3c(n(C(=O)c4ccccc4)c4ccccc34)CC2C(=O)N1c1ccc(Nc2ccc(N3C(=O)C4Cc5c(n(C(=O)c6ccccc6)c6ccccc56)CC4C3=O)cc2)cc1 (centres undefined)
- TGI (HL-60(TB) leukemia): 46.1 µM
- TGI (U251 CNS): > 100 µM
- TGI (A498 renal): > 100 µM
- TGI (DU-145 prostate): > 100 µM
- TGI (NCI-H522 lung): > 100 µM
- TGI (OVCAR-5 ovarian): > 100 µM
- TGI (SR leukemia): > 100 µM
- TGI (OVCAR-4 ovarian): > 100 µM
- TGI (COLO 205 colon): > 100 µM
